Assay results reported in US5906918A, “Compositions and methods for measurement of oxidative DNA damage” (Health Research Inc., priority 1997, dated 1999).

How the values were obtained:
nuclease P1 [1] = target: T1, nuclease P1 (Penicillium citrinum, UniProt P24289); settings: endonucleases such as nuclease P1; Maccubbin et al., 1993; cited from earlier work
T1 sequence (P24289 1-270): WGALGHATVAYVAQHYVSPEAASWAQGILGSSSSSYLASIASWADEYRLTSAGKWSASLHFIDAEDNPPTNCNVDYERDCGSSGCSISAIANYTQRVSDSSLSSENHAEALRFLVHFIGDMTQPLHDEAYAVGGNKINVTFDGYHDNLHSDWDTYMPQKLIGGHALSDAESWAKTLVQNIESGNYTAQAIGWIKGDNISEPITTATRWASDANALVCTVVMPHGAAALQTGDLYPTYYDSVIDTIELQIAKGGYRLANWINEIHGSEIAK

nuclease P1 [2] = target: T1, nuclease P1; assay: Endonuclease (nuclease P1) turnover rate for hydrolysis of modified dinucleoside monophosphates; assay type: biochemical; settings: 6 nmol substrate in 100 μl 60 mM sodium acetate buffer pH 5.3 with zinc chloride, 50 ng nuclease P1, 37° C., HPLC analysis
Procedure: The endonuclease turnover rate was measured in terms of the number of substrate molecules hydrolyzed per minute per molecule of enzyme. The substrates were modified dinucleoside monophosphates comprising the DNA base modifications illustrated in FIG. 1. The respective unmodified dinucleoside monophosphates were purchased commercially, with the exceptions of d(GpG), d(GpC), d(GpA), and d(GpT) which were prepared using methods previously described (Paul et al., 1988, Int. J. Radiat. Biol. 54:403-415). A solution of each the unmodified dinucleoside monophosphates was X-irradiated, and the corresponding modified dinucleoside monophosphate was isolated by reverse-phase HPLC (see, e.g., Schroder et al., 1995, Int. J. Radiat. Biol. 68:509-23; and Box et al., 1995, In Radiation Damage in DNA, eds. Fuciarelli and Zimbrick, publs. Battelle Press). The one exception to producing modified dinucleoside monophosphates was the production of the DNA base modification thymine glycol. Modified dinucleoside monophosphates bearing the thymine glycol modification were prepared by treating dTpA with osmium tetroxide (see, e.g., Belfi et al., 1986, supra). The DNA base modifications were identified using proton nuclear magnetic resonance spectroscopy (see, e.g., Schroder et al., 1995, Int. J. Radiat. Biol. 68:509-23).
Concentrations of the modified dinucleoside monophosphates were determined spectrophotometrically at 260 nm. The rates of hydrolysis for the modified dinucleoside monophosphates by endonuclease were obtained from measurements of equimolar amounts of the substrate modified dinucleoside monophosphate (6 nmol) in 100 μl of 60 mM sodium acetate buffer (pH 5.3, containing […] zinc chloride). Hydrolysis was initiated by the addition of the endonuclease (50 ng of nuclease P1 in 2 μl buffer) and the reactants were incubated in a 37° C. water bath. At varying times, hydrolysis was terminated by the addition of 15 μl of 1M Tris, and rapid freezing in a liquid nitrogen bath. The products of digestion were analyzed by injecting the digest onto a C-18 reverse phase HPLC column, with elution using a 5%-53% linear gradient of CH3 CN/0.1M ammonium acetate buffer, pH 7.0 at a 1.0 ml/minute flow rate. Moles of protein were calculated from the weight of the material and the known molecular weights for the constituents. The results of the measurement of the endonuclease turnover rates (R, as measured in terms of molecules hydrolyzed per minute per molecule of enzyme) for each of the modified dinucleoside monophosphates tested is illustrated in Table 1.

| Structure (SMILES) | hydrolysis by endonuclease of the phosphoester bond 3' to the modified nucleoside (nuclease P1 [1]) | endonuclease turnover rate R (nuclease P1 [2]) |
| --- | --- | --- |
| Nc1ncnc2c1ncn2[C@H]1C[C@H](O)[C@@H](COP(=O)(O)O[C@H]2C[C@H](NC=O)O[C@@H]2CO)O1 [d(T*pA) formamido remnant] | do not hydrolyze | no hydrolysis detected |
| Nc1ccn([C@H]2C[C@H](O)[C@@H](COP(=O)(O)O[C@H]3C[C@H](NC=O)O[C@@H]3CO)O2)c(=O)n1 [d(T*pC) formamido remnant] | – | no hydrolysis detected |
| Nc1nc2c(ncn2[C@H]2C[C@H](O)[C@@H](COP(=O)(O)O[C@H]3C[C@H](NC=O)O[C@@H]3CO)O2)c(=O)[nH]1 [d(T*pG) formamido remnant] | – | no hydrolysis detected |
| Cc1cn([C@H]2C[C@H](O)[C@@H](COP(=O)(O)O[C@H]3C[C@H](NC=O)O[C@@H]3CO)O2)c(=O)[nH]c1=O [d(T*pT) formamido remnant] | – | no hydrolysis detected |
